In PMC12175894 (Science Advances, 2025):
Numbering of substitutions follows the chain as printed. Read-outs that look alike come from different tables or passages of the source.

Tests used:
5-HT1AR wt = biological target: T1, 5-HT1AR wt (Homo sapiens, UniProt P08908); assay: Radioligand competition, displacement of [3H]WAY100635; format: binding
T1 construct: host or cells: HEK293T, transient; membranes
T1 sequence (P08908 1-422): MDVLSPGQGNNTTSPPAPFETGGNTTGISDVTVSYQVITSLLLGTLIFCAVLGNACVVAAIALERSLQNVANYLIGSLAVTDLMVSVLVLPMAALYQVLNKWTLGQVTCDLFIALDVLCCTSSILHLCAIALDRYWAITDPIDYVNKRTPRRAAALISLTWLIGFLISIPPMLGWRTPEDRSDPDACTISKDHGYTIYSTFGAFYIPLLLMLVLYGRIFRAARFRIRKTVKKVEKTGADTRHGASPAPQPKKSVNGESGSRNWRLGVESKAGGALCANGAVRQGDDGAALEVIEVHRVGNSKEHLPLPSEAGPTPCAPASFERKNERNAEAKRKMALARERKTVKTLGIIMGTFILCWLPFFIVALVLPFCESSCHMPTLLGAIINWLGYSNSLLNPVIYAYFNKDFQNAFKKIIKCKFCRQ

opioid κOR = opioid κOR (Homo sapiens, UniProt P41145); assay: Radioligand displacement, [3H]diprenorphine
Sequence of opioid κOR (P41145 whole entry): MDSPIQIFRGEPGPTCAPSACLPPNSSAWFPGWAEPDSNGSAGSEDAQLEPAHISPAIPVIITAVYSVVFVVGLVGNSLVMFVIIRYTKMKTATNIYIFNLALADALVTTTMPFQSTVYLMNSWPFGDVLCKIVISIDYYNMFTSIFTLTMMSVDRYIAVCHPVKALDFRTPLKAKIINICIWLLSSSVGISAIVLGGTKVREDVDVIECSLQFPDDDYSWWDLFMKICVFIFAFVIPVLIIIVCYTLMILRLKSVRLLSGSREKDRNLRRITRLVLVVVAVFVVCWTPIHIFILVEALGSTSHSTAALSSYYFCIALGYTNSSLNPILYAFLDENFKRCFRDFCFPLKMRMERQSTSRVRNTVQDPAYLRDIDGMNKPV

adrenergic β1 = adrenergic β1 (Homo sapiens, UniProt P08588); assay: Radioligand displacement, [3H]CGP12177
Sequence of adrenergic β1 (P08588 whole entry): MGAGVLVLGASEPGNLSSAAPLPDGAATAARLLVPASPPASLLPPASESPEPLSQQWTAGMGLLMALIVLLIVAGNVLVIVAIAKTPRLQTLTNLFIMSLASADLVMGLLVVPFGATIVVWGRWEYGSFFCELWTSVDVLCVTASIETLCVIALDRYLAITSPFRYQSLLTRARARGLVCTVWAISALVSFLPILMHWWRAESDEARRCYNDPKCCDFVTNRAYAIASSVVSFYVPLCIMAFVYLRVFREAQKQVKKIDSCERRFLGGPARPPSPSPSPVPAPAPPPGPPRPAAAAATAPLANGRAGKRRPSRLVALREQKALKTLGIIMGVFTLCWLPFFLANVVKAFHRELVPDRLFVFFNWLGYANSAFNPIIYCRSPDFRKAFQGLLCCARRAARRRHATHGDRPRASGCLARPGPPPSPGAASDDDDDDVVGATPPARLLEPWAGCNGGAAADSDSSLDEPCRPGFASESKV

5-HT1AR [1] = biological target: T2, 5-HT1AR (Homo sapiens, UniProt P08908); assay: High-throughput screening with radioligand displacement, single point; format: binding; set-up: host or cells: HEK293T, transient; membranes; settings: compound at 10 nM
T2 sequence (P08908 1-422): T1 sequence (P08908 1-422)

α2CR = α2CR (Homo sapiens, UniProt P18825); assay: BRET Gαi1 activation
5-HT1AR [2] = biological target: T2, 5-HT1AR; assay: IP-One accumulation with hybrid Gαqi in HEK293T; format: cell-based; set-up: host or cells: HEK293T, HEK293A, HEK293AΔGs, HEK293AΔGi/o, HEK293AΔARRB1/B2
opioid δOR = opioid δOR (Homo sapiens, UniProt P41143); assay: Radioligand displacement, [3H]diprenorphine
Sequence of opioid δOR (P41143 whole entry): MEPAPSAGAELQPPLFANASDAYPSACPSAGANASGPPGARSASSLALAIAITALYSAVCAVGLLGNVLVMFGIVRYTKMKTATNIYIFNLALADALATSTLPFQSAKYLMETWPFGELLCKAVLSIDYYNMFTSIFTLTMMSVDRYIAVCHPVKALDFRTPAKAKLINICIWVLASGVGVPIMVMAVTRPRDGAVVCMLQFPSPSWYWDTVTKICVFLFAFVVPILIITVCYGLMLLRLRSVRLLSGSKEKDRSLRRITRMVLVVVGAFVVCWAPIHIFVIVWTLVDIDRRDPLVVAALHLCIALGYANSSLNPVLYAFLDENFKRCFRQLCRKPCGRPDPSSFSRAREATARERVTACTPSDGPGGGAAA

α2BR = α2BR (Homo sapiens, UniProt P18089); assay: BRET Gαi1 activation
Sequence of α2BR (P18089 whole entry): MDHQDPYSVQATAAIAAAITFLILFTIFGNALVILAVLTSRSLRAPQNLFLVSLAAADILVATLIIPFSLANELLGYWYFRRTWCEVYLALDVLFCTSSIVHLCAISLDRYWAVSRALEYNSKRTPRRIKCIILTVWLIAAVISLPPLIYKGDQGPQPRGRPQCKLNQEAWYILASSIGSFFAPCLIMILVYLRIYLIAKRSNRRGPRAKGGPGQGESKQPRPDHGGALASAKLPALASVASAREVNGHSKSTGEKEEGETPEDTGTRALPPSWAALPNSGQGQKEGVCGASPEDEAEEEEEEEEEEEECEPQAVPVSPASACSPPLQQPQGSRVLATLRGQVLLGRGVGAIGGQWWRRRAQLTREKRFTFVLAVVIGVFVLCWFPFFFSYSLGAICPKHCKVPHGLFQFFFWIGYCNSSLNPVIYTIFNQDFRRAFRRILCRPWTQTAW

[3] = biological target: T3, 5-HT1AR F112^3.28W + M92^2.60F (Homo sapiens, UniProt P08908, F112W/M92F); assay: Radioligand competition, displacement of [3H]WAY100635; format: binding; settings: 5-HT1AR F112W + M92F; HEK 293T membranes; read-out: Ki [nM ± SEM]
T3 sequence (P08908 1-422 M92F/F112W): T1 sequence (P08908 1-422) with M92F, F112W

orexin OX1 = orexin OX1 (Homo sapiens, UniProt O43613); assay: Radioligand displacement, [3H]SB674042
Sequence of orexin OX1 (O43613 whole entry): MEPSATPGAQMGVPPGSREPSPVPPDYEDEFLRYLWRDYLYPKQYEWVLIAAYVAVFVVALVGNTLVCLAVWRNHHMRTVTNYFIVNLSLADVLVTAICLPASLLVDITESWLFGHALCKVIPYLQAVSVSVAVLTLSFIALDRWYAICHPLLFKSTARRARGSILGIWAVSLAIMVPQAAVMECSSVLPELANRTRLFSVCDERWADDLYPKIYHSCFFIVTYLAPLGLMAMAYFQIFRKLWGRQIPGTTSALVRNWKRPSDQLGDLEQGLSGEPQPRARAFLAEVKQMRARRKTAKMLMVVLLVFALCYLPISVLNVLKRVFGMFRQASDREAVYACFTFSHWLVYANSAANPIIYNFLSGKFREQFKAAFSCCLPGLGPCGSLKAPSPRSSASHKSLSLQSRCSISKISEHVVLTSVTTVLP

[4] = In vivo pharmacokinetic studies; settings: mouse, CSF, ip; male C57BL/6 mice, 10 mg/kg i.p.
adrenergic α2B = adrenergic α2B (Homo sapiens, UniProt P18089); assay: Radioligand displacement, [3H]RX821002
Sequence of adrenergic α2B (P18089 whole entry): as the sequence (P18089 whole entry) above

5-HT1FR = 5-HT1FR (Homo sapiens, UniProt P30939); assay: BRET Gαi1 activation
Sequence of 5-HT1FR (P30939 whole entry): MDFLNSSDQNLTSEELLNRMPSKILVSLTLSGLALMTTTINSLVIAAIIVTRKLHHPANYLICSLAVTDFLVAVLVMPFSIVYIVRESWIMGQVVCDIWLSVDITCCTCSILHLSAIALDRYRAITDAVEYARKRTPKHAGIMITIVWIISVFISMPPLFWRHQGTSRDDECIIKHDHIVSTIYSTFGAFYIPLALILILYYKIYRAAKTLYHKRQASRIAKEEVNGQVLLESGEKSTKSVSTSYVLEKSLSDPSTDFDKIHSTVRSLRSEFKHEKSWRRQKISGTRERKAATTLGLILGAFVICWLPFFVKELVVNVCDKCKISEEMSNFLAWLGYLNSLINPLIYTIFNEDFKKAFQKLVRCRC

muscarinic M3 = muscarinic M3 (Homo sapiens, UniProt P20309); assay: Radioligand displacement, [3H]NMS
Sequence of muscarinic M3 (P20309 whole entry): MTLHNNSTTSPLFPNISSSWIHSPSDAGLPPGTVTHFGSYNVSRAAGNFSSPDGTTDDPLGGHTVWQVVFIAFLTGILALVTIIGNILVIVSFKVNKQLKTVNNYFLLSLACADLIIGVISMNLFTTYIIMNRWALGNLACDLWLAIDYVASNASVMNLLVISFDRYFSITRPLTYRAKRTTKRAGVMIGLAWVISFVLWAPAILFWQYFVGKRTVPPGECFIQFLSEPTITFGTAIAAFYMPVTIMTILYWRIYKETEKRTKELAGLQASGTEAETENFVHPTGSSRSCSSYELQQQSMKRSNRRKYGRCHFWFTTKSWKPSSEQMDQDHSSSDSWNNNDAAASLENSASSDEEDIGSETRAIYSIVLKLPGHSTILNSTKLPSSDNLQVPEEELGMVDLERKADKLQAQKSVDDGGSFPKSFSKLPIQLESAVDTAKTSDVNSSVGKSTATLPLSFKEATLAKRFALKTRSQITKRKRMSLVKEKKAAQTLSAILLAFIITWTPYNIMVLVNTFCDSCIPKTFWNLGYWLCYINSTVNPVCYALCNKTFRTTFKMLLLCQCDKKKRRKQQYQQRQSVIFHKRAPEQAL

5-HT1BR = 5-HT1BR (Homo sapiens, UniProt P28222); assay: BRET Gαi1 activation
Sequence of 5-HT1BR (P28222 whole entry): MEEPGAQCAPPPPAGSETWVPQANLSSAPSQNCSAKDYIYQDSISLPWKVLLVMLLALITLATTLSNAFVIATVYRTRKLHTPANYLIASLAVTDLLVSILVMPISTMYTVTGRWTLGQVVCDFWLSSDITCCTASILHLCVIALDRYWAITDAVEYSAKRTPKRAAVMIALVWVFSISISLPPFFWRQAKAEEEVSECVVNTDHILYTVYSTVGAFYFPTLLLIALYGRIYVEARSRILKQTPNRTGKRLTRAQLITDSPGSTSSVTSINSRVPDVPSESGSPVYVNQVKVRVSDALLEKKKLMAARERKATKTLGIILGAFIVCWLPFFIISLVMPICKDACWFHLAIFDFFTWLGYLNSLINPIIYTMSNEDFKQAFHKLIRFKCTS

5-HT1ER = 5-HT1ER (Homo sapiens, UniProt P28566); assay: BRET Gαi1 activation
Sequence of 5-HT1ER (P28566 whole entry): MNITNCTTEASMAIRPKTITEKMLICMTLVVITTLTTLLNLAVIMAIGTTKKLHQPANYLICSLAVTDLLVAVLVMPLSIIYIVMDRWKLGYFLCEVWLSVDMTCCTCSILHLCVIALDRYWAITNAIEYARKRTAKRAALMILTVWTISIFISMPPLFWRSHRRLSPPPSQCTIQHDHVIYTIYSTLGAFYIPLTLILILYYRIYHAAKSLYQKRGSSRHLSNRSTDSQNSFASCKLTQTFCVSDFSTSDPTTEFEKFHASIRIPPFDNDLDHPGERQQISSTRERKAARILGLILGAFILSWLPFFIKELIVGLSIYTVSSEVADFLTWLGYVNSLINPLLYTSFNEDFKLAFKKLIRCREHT

[5] = biological target: T3, 5-HT1AR F112^3.28W + M92^2.60F; assay: GloSensor cAMP accumulation in HEK293AΔGi/o; format: cell-based; settings: read-out: Emax [% ± SEM], cAMP accumulation
5-HT1DR = 5-HT1DR (Homo sapiens, UniProt P28221); assay: BRET Gαi1 activation
Sequence of 5-HT1DR (P28221 whole entry): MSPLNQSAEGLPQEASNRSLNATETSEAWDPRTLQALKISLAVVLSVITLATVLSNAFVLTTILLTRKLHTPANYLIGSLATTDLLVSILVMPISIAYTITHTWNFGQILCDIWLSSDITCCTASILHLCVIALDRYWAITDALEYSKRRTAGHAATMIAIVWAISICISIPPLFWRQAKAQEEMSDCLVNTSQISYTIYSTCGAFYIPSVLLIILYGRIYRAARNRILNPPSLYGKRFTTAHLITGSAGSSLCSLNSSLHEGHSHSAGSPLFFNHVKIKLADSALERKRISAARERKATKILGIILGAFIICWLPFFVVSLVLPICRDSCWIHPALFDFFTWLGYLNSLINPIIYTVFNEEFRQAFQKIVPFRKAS

5-HT1AR [6] = biological target: T2, 5-HT1AR; assay: β-arrestin 1 recruitment, enhanced bystander BRET in HEK293T with GRK2; settings: HEK-293T, read-out: Emax, β-arrestin 1 recruitment
muscarinic M1 = muscarinic M1 (Homo sapiens, UniProt P11229); assay: Radioligand displacement, [3H]NMS
Sequence of muscarinic M1 (P11229 whole entry): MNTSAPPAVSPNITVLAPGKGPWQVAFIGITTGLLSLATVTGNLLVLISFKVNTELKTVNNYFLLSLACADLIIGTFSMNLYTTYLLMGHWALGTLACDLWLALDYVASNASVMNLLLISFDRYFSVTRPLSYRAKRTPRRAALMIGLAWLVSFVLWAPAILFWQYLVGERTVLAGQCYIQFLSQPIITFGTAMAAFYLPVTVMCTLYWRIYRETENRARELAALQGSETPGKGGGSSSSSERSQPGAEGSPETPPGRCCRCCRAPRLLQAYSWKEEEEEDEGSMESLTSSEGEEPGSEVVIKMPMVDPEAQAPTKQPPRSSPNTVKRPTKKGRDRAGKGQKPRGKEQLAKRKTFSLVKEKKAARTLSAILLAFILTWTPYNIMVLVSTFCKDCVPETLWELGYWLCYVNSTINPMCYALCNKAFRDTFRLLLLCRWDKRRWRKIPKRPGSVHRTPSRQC

5-HT1AR [7] = biological target: T2, 5-HT1AR; assay: PathHunter β-arrestin 2 inhibition assay, stimulated with serotonin

Compound `COc1ccccc1OCCNCCCOc1ccc2c(c1)NC(=O)CO2` [ST171] has a Ki (5-HT1AR wt; 5-HT1A, read-out: pKi (converted)) of 0.369 nM, a Ki (5-HT1AR wt; 5-HT1AR wt, membranes from transiently transfected HEK 293T cells, read-out: Ki [nM ± SEM]) of 0.41 nM and a Ki (opioid κOR; Ki [nM ± SD]) of 6200 ± 850 nM. For the same compound, the Ki (opioid κOR; pKi) was 6280 nM, the Ki (adrenergic β1; Ki [nM ± SD]) was 1700 ± 350 nM and the Ki (adrenergic β1; pKi) was 1630 nM. For the same compound, the “displacement of the radiolabeled ligand [3H]WAY100,635” value (5-HT1AR [1]) was “more than 80%”, the intrinsic activity (α2CR) was “devoid of intrinsic activity” and the Emax (5-HT1AR [2]; HEK-293T, read-out: Emax[Gqi], IP accumulation) was 43%. For the same compound, the EC50 (5-HT1AR [2]; hybrid Gαqi, HEK293T, read-out: EC50[Gqi], IP accumulation) was 13 ± 2.9 nM, the Ki (opioid δOR; Ki [nM ± SD]) was 24000 ± 3500 nM and the Ki (opioid δOR; pKi) was 23400 nM. For the same compound, the intrinsic activity (α2BR) was “devoid of intrinsic activity”, the Ki [3] was 0.044 nM and the Ki (orexin OX1; Ki [nM ± SD]) was greater than 50000 nM. The Ki (orexin OX1; pKi) was greater than 50100 nM, the Cmax [4] was roughly 40 nM and the Ki (adrenergic α2B; Ki [nM ± SD]) was 110 ± 60 nM. The Ki (adrenergic α2B; pKi) was 103 nM, the Emax (5-HT1FR) was less than 10% and the Ki (muscarinic M3; Ki [nM ± SD]) was 49000 ± 28000 nM. For the same compound, the Ki (muscarinic M3; pKi) was 41500 nM, the EC50 (5-HT1BR) was 3.7 nM and the Emax (5-HT1BR) was 94%. For the same compound, the Emax (5-HT1ER) was less than 10%, the Emax [5] was less than 5% and the EC50 (5-HT1DR) was 5.7 nM. For the same compound, the Emax (5-HT1DR) was 54%, the Emax (5-HT1AR [6]) was less than 5% and the Ki (muscarinic M1; Ki [nM ± SD]) was 10000 ± 920 nM. It also gave a Ki (muscarinic M1; pKi) of 10300 nM and an IC50 (5-HT1AR [7]) of 3.9 ± 0.5 nM.
